# Test system: tumor growth
# Test: anti-tumor activity of GABA-linked conjugate compared to the unconjugated anticancer agent (model not given)
# Type: in vivo
# Conditions: model not specified
# Excerpt: The anti-tumor activity of LOC-GABA-doxorubicin was studied in three tumor models.
row,SMILES,anti-tumor activity compared to the unconjugated drug
1,CCC=CCC=CCC=CCC=CCC=CCC=CCCC(=O)NCCCC(=O)OC(C(=O)OC1CC2(O)C(OC(=O)c3ccccc3)C3C4(OC(C)=O)COC4CC(O)C3(C)C(=O)C(OC(C)=O)C(=C1C)C2(C)C)C(NC(=O)c1ccccc1)c1ccccc1 (centres unmarked),superior activity in inhibiting tumor growth
2,CC/C=C\C/C=C\C/C=C\C/C=C\C/C=C\C/C=C\CCC(=O)NCCCC(=O)O[C@H]1C[C@H]2OC[C@@]2(OC(C)=O)[C@H]2[C@H](OC(=O)c3ccccc3)[C@]3(O)C[C@H](OC(=O)[C@H](O)[C@@H](NC(=O)c4ccccc4)c4ccccc4)C(C)=C([C@@H](OC(C)=O)C(=O)[C@]12C)C3(C)C,did not show superior anti-tumor activity
